# Assay results: patent US20180256673A1, “METHODS FOR TREATING FUNGAL INFECTIONS” (priority 2015, published 2018)
# “And” between values parts separate entries of the source, which are not always exact repeats. Equal entries are not always repeated. Where two headings read alike, the source gives them in different places.
# What was measured:
# Candida parapsilosis = assay: Broth microdilution of invasive fungal isolates (CLSI M27-A3/M38-A2); type: cell-based; settings: 92 isolates
# Candida krusei = assay: as above; type: cell-based; settings: 16 isolates
# C. parapsilosis CP02 = type: cell-based, Candida parapsilosis
# Experimental: (§1) Spontaneous mutant selection. […] Three individual colonies from each strain were used to start cultures in RPMI. […] One milliliter aliquots were spread onto SDA plates containing drug with sterile glass beads. Starting viable count was enumerated by triplicate plating of serial dilutions of the starting inoculum. […] Glycerol stocks of putative mutant colonies were stored at −80° C. […] Spontaneous mutation frequencies were calculated by dividing the number of resistant colonies on a given plate by the starting inoculum plated. A subset of mutants (weighted heavily towards those selected with CMP1) were then evaluated by MIC and sequencing of FKS gene hot spot regions.
# [1] = test system: C. glabrata ATCC 90030, ATCC 2001; assay: Broth microdilution MIC (CLSI), Examples 3 and 4; settings: for MIC: Nakaseomyces glabratus
# Experimental: (§2) Antifungal susceptibility testing. Candida strains were cultured aerobically at 35° C. on SDA plates or in RPMI 1640 broth (pH 7.0). […] MIC assays were performed in triplicate.
# Candida dubliniensis = assay: Broth microdilution of invasive fungal isolates (CLSI M27-A3/M38-A2); type: cell-based; settings: 11 isolates
# Candida orthopsilosis = assay: as above; type: cell-based; settings: 10 isolates
# Candida albicans = assay: as above; type: cell-based; settings: 251 isolates
# [2] = test system: C. tropicalis vaginal isolates; assay: Susceptibility testing of VVC clinical isolates at pH 7 and 4 (CLSI M27-A3); type: cell-based; settings: Candida tropicalis, 13 isolates, read-out: MIC90
# [3] = test system: Cryptococcus neoformans var. grubii; assay: Broth microdilution of invasive fungal isolates (CLSI M27-A3/M38-A2); type: cell-based; settings: 19 isolates
# Candida glabrata = assay: microbe, parasite or virus in culture; type: cell-based
# C. krusei ATCC 6258 [4] = assay: Broth microdilution MIC (CLSI), Examples 3 and 4; settings: Pichia kudriavzevii, ATCC6258, 24 h, read-out: Broth MIC
# Experimental: as §2
# C. albicans NRRL Y-477 = assay: Broth microdilution MIC (CLSI), Examples 3 and 4; settings: Candida albicans
# Experimental: Antifungal susceptibility testing. […] MIC assays were performed in triplicate.
# [5] = test system: azole-resistant Candida albicans R357 strain; assay: microbe, parasite or virus in culture; type: cell-based
# C. krusei ATCC 6258 [6] = type: cell-based, Candida krusei
# Experimental: as §1
# [7] = test system: C. glabrata vaginal isolates; assay: Susceptibility testing of VVC clinical isolates at pH 7 and 4 (CLSI M27-A3); type: cell-based, Candida glabrata; settings: Nakaseomyces glabratus, 21 isolates, read-out: MIC90
# Candida tropicalis = assay: Broth microdilution of invasive fungal isolates (CLSI M27-A3/M38-A2); type: cell-based; settings: 51 isolates
# [8] = SDA, minimum concentration to cleanly inhibit growth
compound,measurement,setting,value
"CC[C@H](C)C[C@H](C)CCCCCCCCC(=O)N[C@H]1C[C@@H](O)[C@@H](NCCN)NC(=O)[C@@H]2[C@@H](O)CCN2C(=O)[C@H]([C@H](O)CCN)NC(=O)[C@H]([C@H](O)[C@@H](O)c2ccc(O)cc2)NC(=O)[C@@H]2C[C@@H](O)CN2C(=O)[C@H]([C@@H](C)O)NC1=O [CAS, caspofungin]",Cumulative % of isolates inhibited at MIC 0.25 μg/mL,Candida parapsilosis,(33.7) %
same,Cumulative % of isolates inhibited at MIC 0.5 μg/mL,Candida parapsilosis,(87.0) %
same,Cumulative % of isolates inhibited at MIC 1 μg/mL,Candida parapsilosis,(98.9) %
same,Cumulative % of isolates inhibited at MIC 2 μg/mL,Candida parapsilosis,(100.0) %
same,Number of isolates inhibited at MIC 0.25 μg/mL,Candida parapsilosis,31
same,Number of isolates inhibited at MIC 0.5 μg/mL,Candida parapsilosis,49
same,Number of isolates inhibited at MIC 1 μg/mL,Candida parapsilosis,11
same,Number of isolates inhibited at MIC 2 μg/mL,Candida parapsilosis,1
same,MIC50,"Candida parapsilosis; Lodderomyces parapsilosis, read-out: MIC50",0.5 µg/mL
same,MIC90,"Candida parapsilosis; Lodderomyces parapsilosis, read-out: MIC90",1 µg/mL
same,Cumulative % of isolates inhibited at MIC 0.06 μg/mL,Candida krusei,(25.0) %
same,Cumulative % of isolates inhibited at MIC 0.12 μg/mL,Candida krusei,(87.5) %
same,Cumulative % of isolates inhibited at MIC 0.25 μg/mL,Candida krusei,(100.0) %
same,Number of isolates inhibited at MIC 0.06 μg/mL,Candida krusei,4
same,Number of isolates inhibited at MIC 0.12 μg/mL,Candida krusei,10
same,Number of isolates inhibited at MIC 0.25 μg/mL,Candida krusei,2
same,MIC50,"Candida krusei; Pichia kudriavzevii, read-out: MIC50",0.12 µg/mL
same,MIC90,"Candida krusei; Pichia kudriavzevii, read-out: MIC90",0.25 µg/mL
same,Median mutation frequency,C. parapsilosis CP02,<1.04E−08
same,Plate concentration,C. parapsilosis CP02; [8],1 µg/mL
same,Freq. (replicate mutation frequency),C. parapsilosis CP02; replicate plates 1-3,<1.04E−08 (2×) and <9.62E−09
same,Broth MIC,"[1]; ATCC 2001 wild-type, 24 h, ~50% inhibition",0.25 µg/mL
same,MIC,"[1]; 24 h, read-out: Broth MIC",0.25 µg/mL
same,MIC,"[1]; ATCC2001|ATCC90030, ATCC 2001 spontaneous mutant, Fks2 HS1 D666N",0.25 µg/mL
same,MIC,"[1]; ATCC2001|ATCC90030, ATCC 2001 spontaneous mutant, Fks2 HS1 D666Y",0.5 µg/mL
same,MIC,"[1]; ATCC2001|ATCC90030, ATCC 2001 spontaneous mutant, Fks2 HS1 R665G",0.5 µg/mL
same,MIC,"[1]; ATCC2001|ATCC90030, ATCC 2001 spontaneous mutant, Fks2 HS1 S663F",1 µg/mL
same,MIC,"[1]; ATCC2001|ATCC90030, ATCC 2001 spontaneous mutant, Fks2 HS1 ΔF659",16 µg/mL
same,MIC,"[1]; ATCC2001|ATCC90030, ATCC 2001 spontaneous mutant, Fks2 HS2 R1378S",0.25 µg/mL
same,MIC,"[1]; ATCC2001|ATCC90030, ATCC 90030 spontaneous mutant, Fks2 HS1 D666H",1 µg/mL
same,MIC,"[1]; ATCC2001|ATCC90030, ATCC 90030 spontaneous mutant, Fks2 HS1 ΔF659",4 µg/mL
same,Cumulative % of isolates inhibited at MIC 0.015 μg/mL,Candida dubliniensis,(9.1) %
same,Cumulative % of isolates inhibited at MIC 0.03 μg/mL,Candida dubliniensis,(54.5) %
same,Cumulative % of isolates inhibited at MIC 0.06 μg/mL,Candida dubliniensis,(100.0) %
same,Number of isolates inhibited at MIC 0.015 μg/mL,Candida dubliniensis,1
same,Number of isolates inhibited at MIC 0.03 μg/mL,Candida dubliniensis,5
same,Number of isolates inhibited at MIC 0.06 μg/mL,Candida dubliniensis,5
same,MIC50,"Candida dubliniensis; Candida dubliniensis, read-out: MIC50",0.03 µg/mL
same,MIC90,"Candida dubliniensis; Candida dubliniensis, read-out: MIC90",0.06 µg/mL
same,Cumulative % of isolates inhibited at MIC 0.06 μg/mL,Candida orthopsilosis,(10.0) %
same,Cumulative % of isolates inhibited at MIC 0.12 μg/mL,Candida orthopsilosis,(40.0) %
same,Cumulative % of isolates inhibited at MIC 0.25 μg/mL,Candida orthopsilosis,(70.0) %
same,Cumulative % of isolates inhibited at MIC 0.5 μg/mL,Candida orthopsilosis,(100.0) %
same,Number of isolates inhibited at MIC 0.06 μg/mL,Candida orthopsilosis,1
same,Number of isolates inhibited at MIC 0.12 μg/mL,Candida orthopsilosis,3
same,Number of isolates inhibited at MIC 0.25 μg/mL,Candida orthopsilosis,3
same,Number of isolates inhibited at MIC 0.5 μg/mL,Candida orthopsilosis,3
same,MIC50,"Candida orthopsilosis; Lodderomyces orthopsilosis, read-out: MIC50",0.25 µg/mL
same,MIC90,"Candida orthopsilosis; Lodderomyces orthopsilosis, read-out: MIC90",0.5 µg/mL
same,Cumulative % of isolates inhibited at MIC 0.015 μg/mL,Candida albicans,(31.9) %
same,Cumulative % of isolates inhibited at MIC 0.03 μg/mL,Candida albicans,(85.7) %
same,Cumulative % of isolates inhibited at MIC 0.06 μg/mL,Candida albicans,(99.2) %
same,Cumulative % of isolates inhibited at MIC 0.12 μg/mL,Candida albicans,(100.0) %
same,Cumulative % of isolates inhibited at MIC ≤0.008 μg/mL,Candida albicans,1.6%
same,Number of isolates inhibited at MIC 0.015 μg/mL,Candida albicans,76
same,Number of isolates inhibited at MIC 0.03 μg/mL,Candida albicans,135
same,Number of isolates inhibited at MIC 0.06 μg/mL,Candida albicans,34
same,Number of isolates inhibited at MIC 0.12 μg/mL,Candida albicans,2
same,Number of isolates inhibited at MIC ≤0.008 μg/mL,Candida albicans,4
same,MIC50,"Candida albicans; Candida albicans, read-out: MIC50",0.03 µg/mL
same,MIC90,"Candida albicans; Candida albicans, read-out: MIC90",0.06 µg/mL
same,MIC90,"[2]; pH 4, 24 h",1 µg/mL
same,MIC90,"[2]; pH 4, 48 h",2 µg/mL
same,MIC90,"[2]; pH 7, 24 h",1 µg/mL
same,MIC90,"[2]; pH 7, 48 h",2 µg/mL
same,Cumulative % of isolates inhibited at MIC 8 μg/mL,[3],(21.1) %
same,Cumulative % of isolates inhibited at MIC >8 μg/mL,[3],(100.0) %
same,Number of isolates inhibited at MIC 8 μg/mL,[3],4
same,Number of isolates inhibited at MIC >8 μg/mL,[3],15
same,MIC50,"[3]; Cryptococcus neoformans, read-out: MIC50",8 µg/mL
same,MIC90,"[3]; Cryptococcus neoformans, read-out: MIC90",8 µg/mL
same,Cumulative % of isolates inhibited at MIC 0.03 μg/mL,Candida glabrata; 100 isolates,(38.0) %
same,Cumulative % of isolates inhibited at MIC 0.06 μg/mL,Candida glabrata; 100 isolates,(89.0) %
same,Cumulative % of isolates inhibited at MIC 0.12 μg/mL,Candida glabrata; 100 isolates,(95.0) %
same,Cumulative % of isolates inhibited at MIC 0.25 μg/mL,Candida glabrata; 100 isolates,(95.0) %
same,Cumulative % of isolates inhibited at MIC 0.5 μg/mL,Candida glabrata; 100 isolates,(95.0) %
same,Cumulative % of isolates inhibited at MIC 1 μg/mL,Candida glabrata; 100 isolates,(95.0) %
same,Cumulative % of isolates inhibited at MIC 2 μg/mL,Candida glabrata; 100 isolates,(97.0) %
same,Cumulative % of isolates inhibited at MIC 4 μg/mL,Candida glabrata; 100 isolates,(97.0) %
same,Cumulative % of isolates inhibited at MIC 8 μg/mL,Candida glabrata; 100 isolates,(100.0) %
same,Number of isolates inhibited at MIC 0.03 μg/mL,Candida glabrata; 100 isolates,38
same,Number of isolates inhibited at MIC 0.06 μg/mL,Candida glabrata; 100 isolates,51
same,Number of isolates inhibited at MIC 0.12 μg/mL,Candida glabrata; 100 isolates,6
same,Number of isolates inhibited at MIC 0.25 μg/mL,Candida glabrata; 100 isolates,0
same,Number of isolates inhibited at MIC 0.5 μg/mL,Candida glabrata; 100 isolates,0
same,Number of isolates inhibited at MIC 1 μg/mL,Candida glabrata; 100 isolates,0
same,Number of isolates inhibited at MIC 2 μg/mL,Candida glabrata; 100 isolates,3
same,Number of isolates inhibited at MIC 4 μg/mL,Candida glabrata; 100 isolates,0
same,Number of isolates inhibited at MIC 8 μg/mL,Candida glabrata; 100 isolates,3
same,MIC50,Candida glabrata; Nakaseomyces glabratus,0.06 µg/mL
same,MIC90,Candida glabrata; Nakaseomyces glabratus,0.12 µg/mL
same,MIC,"Candida glabrata; Nakaseomyces glabratus, read-out: MIC according to CLSI method, isolate from CA, USA, fks1 HS1 S629P",8 µg/mL
same,MIC,"Candida glabrata; Nakaseomyces glabratus, read-out: MIC according to CLSI method, isolate from Canada (first line), fks1 HS1 S629P, fks2 HS1 S663P",> 8 µg/mL
same,MIC,"Candida glabrata; Nakaseomyces glabratus, read-out: MIC according to CLSI method, isolate from Canada (second line), fks1 HS1 S629P, fks2 HS1 S663P",> 8 µg/mL
same,MIC,"Candida glabrata; Nakaseomyces glabratus, read-out: MIC according to CLSI method, isolate from Israel, fks2 HS1 F659S",2 µg/mL
same,MIC,"Candida glabrata; Nakaseomyces glabratus, read-out: MIC according to CLSI method, isolate from NY, USA, fks2 HS1 S663P",2 µg/mL
same,MIC,"Candida glabrata; Nakaseomyces glabratus, read-out: MIC results, two isolates from same patient, Edmonton, Canada, fks1 HS1 S629P and fks2 HS1 S663P",> 8 µg/mL
same,MIC,C. krusei ATCC 6258 [4],0.5 µg/mL
same,MIC,C. albicans NRRL Y-477; NRRLY477,0.5 µg/mL
same,MIC,"C. albicans NRRL Y-477; NRRLY477, 24 h, read-out: Broth MIC",0.25 µg/mL
same,Susceptibility (CLSI),[5]; C. albicans R357,S
same,MIC,[5]; Candida albicans,0.25 µg/mL
same,Median mutation frequency,C. krusei ATCC 6258 [6],<3.86E−09
same,Plate concentration,C. krusei ATCC 6258 [6]; [8],0.5 µg/mL
same,Freq. (replicate mutation frequency),C. krusei ATCC 6258 [6]; replicate plates 1-3,<3.86E−09 (2×) and 3.51E−09
same,MIC90,"[7]; pH 4, 24 h",1 µg/mL
same,MIC90,"[7]; pH 4, 48 h",2 µg/mL
same,MIC90,"[7]; pH 7, 24 h",1 µg/mL
same,MIC90,"[7]; pH 7, 48 h",2 µg/mL
same,Cumulative % of isolates inhibited at MIC 0.015 μg/mL,Candida tropicalis,(23.5) %
same,Cumulative % of isolates inhibited at MIC 0.03 μg/mL,Candida tropicalis,(68.6) %
same,Cumulative % of isolates inhibited at MIC 0.06 μg/mL,Candida tropicalis,(98.0) %
same,Cumulative % of isolates inhibited at MIC 0.12 μg/mL,Candida tropicalis,(100.0) %
same,Number of isolates inhibited at MIC 0.015 μg/mL,Candida tropicalis,12
same,Number of isolates inhibited at MIC 0.03 μg/mL,Candida tropicalis,23
same,Number of isolates inhibited at MIC 0.06 μg/mL,Candida tropicalis,15
same,Number of isolates inhibited at MIC 0.12 μg/mL,Candida tropicalis,1
same,MIC50,"Candida tropicalis; Candida tropicalis, read-out: MIC50",0.03 µg/mL
same,MIC90,"Candida tropicalis; Candida tropicalis, read-out: MIC90",0.06 µg/mL
